# Molecular target: human NaV 1.8 (Homo sapiens, UniProt Q9Y5Y9)
# Test: E-VIPR assay for detecting and measuring NaV inhibition properties
# Format: cell-based
# Details: E-VIPR assay conducted in the presence of human serum; HEK cells expressing truncated human NaV 1.8; read-out: IC50
# How it was run: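 HEK cells with truncated human NaV1.8 plus KIR2.1 BacMam, hexyl dye loaded 20 min, compound 30 min at room temperature, 11-point 3-fold series […], 0.625% DMSO, with or without human serum. E-VIPR biphasic stimulation at 10 Hz for 10 s; membrane-potential response read as normalized coumarin/oxonol ratio.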
# Chain of human NaV 1.8 (Q9Y5Y9 whole entry, looked up): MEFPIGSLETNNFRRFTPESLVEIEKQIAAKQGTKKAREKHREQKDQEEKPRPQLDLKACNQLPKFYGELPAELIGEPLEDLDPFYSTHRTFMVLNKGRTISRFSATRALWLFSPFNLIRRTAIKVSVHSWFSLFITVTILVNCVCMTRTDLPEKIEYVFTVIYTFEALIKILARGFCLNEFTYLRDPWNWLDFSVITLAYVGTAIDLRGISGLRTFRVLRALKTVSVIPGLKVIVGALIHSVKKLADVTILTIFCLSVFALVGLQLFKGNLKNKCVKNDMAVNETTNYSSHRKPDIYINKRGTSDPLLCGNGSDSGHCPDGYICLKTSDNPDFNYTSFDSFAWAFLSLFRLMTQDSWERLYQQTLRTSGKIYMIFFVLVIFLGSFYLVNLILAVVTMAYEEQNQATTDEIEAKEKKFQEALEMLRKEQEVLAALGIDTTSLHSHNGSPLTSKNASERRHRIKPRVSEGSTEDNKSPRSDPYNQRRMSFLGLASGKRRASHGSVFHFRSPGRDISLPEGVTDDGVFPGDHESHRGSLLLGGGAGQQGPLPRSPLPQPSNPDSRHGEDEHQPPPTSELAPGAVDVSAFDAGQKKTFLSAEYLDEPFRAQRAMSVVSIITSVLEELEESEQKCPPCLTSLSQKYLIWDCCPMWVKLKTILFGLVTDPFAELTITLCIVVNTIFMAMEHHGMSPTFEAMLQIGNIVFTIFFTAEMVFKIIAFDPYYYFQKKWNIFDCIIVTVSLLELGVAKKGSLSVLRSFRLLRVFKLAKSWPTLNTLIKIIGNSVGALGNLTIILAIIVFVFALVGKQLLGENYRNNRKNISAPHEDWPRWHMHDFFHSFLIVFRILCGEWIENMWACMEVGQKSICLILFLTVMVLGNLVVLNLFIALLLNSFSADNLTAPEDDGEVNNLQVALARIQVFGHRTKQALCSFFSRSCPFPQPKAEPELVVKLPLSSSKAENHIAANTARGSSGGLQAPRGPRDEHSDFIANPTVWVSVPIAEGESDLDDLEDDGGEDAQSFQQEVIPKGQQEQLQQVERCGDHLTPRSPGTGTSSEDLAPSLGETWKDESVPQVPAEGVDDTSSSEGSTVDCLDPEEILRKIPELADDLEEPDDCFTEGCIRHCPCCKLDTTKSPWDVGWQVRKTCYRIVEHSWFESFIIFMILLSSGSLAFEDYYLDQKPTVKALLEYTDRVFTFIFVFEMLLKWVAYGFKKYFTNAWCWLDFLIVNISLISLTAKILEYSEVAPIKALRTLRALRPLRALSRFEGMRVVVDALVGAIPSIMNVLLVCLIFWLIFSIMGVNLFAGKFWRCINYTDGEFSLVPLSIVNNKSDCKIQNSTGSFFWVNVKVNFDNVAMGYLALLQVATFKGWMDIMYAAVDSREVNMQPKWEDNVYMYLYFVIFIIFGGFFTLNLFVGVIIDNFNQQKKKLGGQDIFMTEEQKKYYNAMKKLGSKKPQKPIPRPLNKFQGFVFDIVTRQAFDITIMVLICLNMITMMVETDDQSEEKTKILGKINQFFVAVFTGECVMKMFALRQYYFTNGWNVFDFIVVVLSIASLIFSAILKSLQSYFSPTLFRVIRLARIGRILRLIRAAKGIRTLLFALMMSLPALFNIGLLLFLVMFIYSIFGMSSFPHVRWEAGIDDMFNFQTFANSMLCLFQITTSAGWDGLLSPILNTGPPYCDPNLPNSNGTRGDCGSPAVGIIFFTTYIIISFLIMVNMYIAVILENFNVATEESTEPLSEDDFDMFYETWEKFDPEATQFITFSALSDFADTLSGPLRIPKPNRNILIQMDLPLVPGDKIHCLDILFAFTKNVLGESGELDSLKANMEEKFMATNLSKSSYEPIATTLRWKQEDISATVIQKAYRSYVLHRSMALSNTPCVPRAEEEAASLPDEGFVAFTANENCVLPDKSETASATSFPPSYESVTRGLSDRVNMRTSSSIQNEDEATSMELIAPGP
row,SMILES,IC50
1,"NC(=O)c1ccc(NC(=O)c2c(Oc3ccc(Cl)cc3F)ccc(C(F)(F)F)c2F)cn1 [Compound 219, 5-[[6-(4-chloro-2-fluoro-phenoxy)-2-fluoro-3-(trifluoromethyl)benzoyl]amino]pyridine-2-carboxamide]",1500 nM
2,"COc1cc(Cl)ccc1Oc1ccc(C(F)(F)F)c(F)c1C(=O)Nc1ccc(C(N)=O)nc1 [Compound 220, 5-[[6-(4-chloro-2-methoxy-phenoxy)-2-fluoro-3-(trifluoromethyl)benzoyl]amino]pyridine-2-carboxamide]",530 nM
3,"NC(=O)c1ccc(NC(=O)c2c(Oc3ccc(OC(F)(F)F)cc3F)ccc(C(F)(F)F)c2F)cn1 [Compound 221, 5-[[2-fluoro-6-[2-fluoro-4-(trifluoromethoxy)phenoxy]-3-(trifluoromethyl)benzoyl]amino]pyridine-2-carboxamide]",430 nM
4,"Cc1cc(OC(F)(F)F)ccc1Oc1ccc(C(F)(F)F)c(F)c1C(=O)Nc1ccc(C(N)=O)nc1 [Compound 222, 5-[[2-fluoro-6-[2-methyl-4-(trifluoromethoxy)phenoxy]-3-(trifluoromethyl)benzoyl]amino]pyridine-2-carboxamide]",120 nM
5,"NC(=O)c1ccc(NC(=O)c2c(Oc3ccc(OC(F)(F)F)cc3Cl)ccc(C(F)(F)F)c2F)cn1 [Compound 223, 5-[[6-[2-chloro-4-(trifluoromethoxy)phenoxy]-2-fluoro-3-(trifluoromethyl)benzoyl]amino]pyridine-2-carboxamide]",130 nM
6,"COc1c(Oc2ccc(C(F)(F)F)c(C)c2C(=O)Nc2ccc(C(N)=O)nc2)ccc(OC(F)(F)F)c1F [Compound 224, 5-[[6-[3-fluoro-2-methoxy-4-(trifluoromethoxy)phenoxy]-2-methyl-3-(trifluoromethyl)benzoyl]amino]pyridine-2-carboxamide]",6 nM
7,"Cc1c(C(F)(F)F)ccc(Oc2ccc(F)c(F)c2F)c1C(=O)Nc1ccc(C(N)=O)nc1 [Compound 225, 5-[[2-methyl-3-(trifluoromethyl)-6-(2,3,4-trifluorophenoxy)benzoyl]amino]pyridine-2-carboxamide]",1500 nM
8,"Cc1c(C(F)(F)F)ccc(Oc2ccc(OC(F)(F)F)cc2C2CC2)c1C(=O)Nc1ccc(C(N)=O)nc1 [Compound 226, 5-[[6-[2-cyclopropyl-4-(trifluoromethoxy)phenoxy]-2-methyl-3-(trifluoromethyl)benzoyl]amino]pyridine-2-carboxamide]",140 nM
9,"Cc1c(Oc2ccc(C(F)(F)F)c(C)c2C(=O)Nc2ccc(C(N)=O)nc2)ccc(F)c1F [Compound 227, 5-[[6-(3,4-difluoro-2-methyl-phenoxy)-2-methyl-3-(trifluoromethyl)benzoyl]amino]pyridine-2-carboxamide]",610 nM
10,"COc1cc(C)cc(OC)c1Oc1ccc(C(F)(F)F)c(C)c1C(=O)Nc1ccc(C(N)=O)nc1 [Compound 228, 5-[[6-(2,6-dimethoxy-4-methyl-phenoxy)-2-methyl-3-(trifluoromethyl)benzoyl]amino]pyridine-2-carboxamide]",> 3000 nM
11,"Cc1cc(Cl)cc(C)c1Oc1ccc(C(F)(F)F)c(C)c1C(=O)Nc1ccc(C(N)=O)nc1 [Compound 229, 5-[[6-(4-chloro-2,6-dimethyl-phenoxy)-2-methyl-3-(trifluoromethyl)benzoyl]amino]pyridine-2-carboxamide]",> 3000 nM
12,"Cc1c(C(F)(F)F)ccc(Oc2c(F)cc(F)cc2F)c1C(=O)Nc1ccc(C(N)=O)nc1 [Compound 230, 5-[[2-methyl-3-(trifluoromethyl)-6-(2,4,6-trifluorophenoxy)benzoyl]amino]pyridine-2-carboxamide]",> 3000 nM
13,"Cc1c(F)ccc(Oc2ccc(C(F)(F)F)c(C)c2C(=O)Nc2ccc(C(N)=O)nc2)c1C [Compound 231, 5-[[6-(4-fluoro-2,3-dimethyl-phenoxy)-2-methyl-3-(trifluoromethyl)benzoyl]amino]pyridine-2-carboxamide]",> 3000 nM
14,"COc1cc(F)ccc1Oc1ccc(C(F)(F)F)c(C)c1C(=O)Nc1ccc(C(N)=O)nc1 [Compound 232, 5-[[6-(4-fluoro-2-methoxy-phenoxy)-2-methyl-3-(trifluoromethyl)benzoyl]amino]pyridine-2-carboxamide]",1500 nM
15,"Cc1cc(Cl)ccc1Oc1ccc(C(F)(F)F)c(C)c1C(=O)Nc1ccc(C(N)=O)nc1 [Compound 233, 5-[[6-(4-chloro-2-methyl-phenoxy)-2-methyl-3-(trifluoromethyl)benzoyl]amino]pyridine-2-carboxamide]",1400 nM
16,"Cc1c(C(F)(F)F)ccc(Oc2ccc(Cl)cc2F)c1C(=O)Nc1ccc(C(N)=O)nc1 [Compound 234, 5-[[6-(4-chloro-2-fluoro-phenoxy)-2-methyl-3-(trifluoromethyl)benzoyl]amino]pyridine-2-carboxamide]",> 3000 nM

row,SMILES,IC50
1,"COc1ccc(Oc2ccc(C(F)(F)F)c(C)c2C(=O)Nc2ccc(C(N)=O)nc2)c(Cl)c1 [Compound 235, 5-[[6-(2-chloro-4-methoxy-phenoxy)-2-methyl-3-(trifluoromethyl)benzoyl]amino]pyridine-2-carboxamide]",1400 nM
2,"Cc1cc(OC(F)(F)F)ccc1Oc1ccc(C(F)(F)F)c(C)c1C(=O)Nc1ccc(C(N)=O)nc1 [Compound 236, 5-[[2-methyl-6-[2-methyl-4-(trifluoromethoxy)phenoxy]-3-(trifluoromethyl)benzoyl]amino]pyridine-2-carboxamide]",170 nM
3,"COc1cc(OC(F)(F)F)ccc1Oc1cc(C(C)(C)C)cc(C)c1C(=O)Nc1ccnc(C(N)=O)c1 [Compound 237, 4-[[4-tert-butyl-2-[2-methoxy-4-(trifluoromethoxy)phenoxy]-6-methyl-benzoyl]amino]pyridine-2-carboxamide]",93 nM
4,"COc1cc(OC(F)(F)F)ccc1Oc1cc(C(C)(C)C)cnc1C(=O)Nc1ccnc(C(N)=O)c1 [Compound 238, 5-tert-butyl-N-(2-carbamoyl-4-pyridyl)-3-[2-methoxy-4-(trifluoromethoxy)phenoxy]pyridine-2-carboxamide]",695 nM
5,"Cc1c2c(cc(Oc3ccc(OC(F)(F)F)cc3Cl)c1C(=O)Nc1ccnc(C(N)=O)c1)OC(F)(F)O2 [Compound 239, 4-[[6-[2-chloro-4-(trifluoromethoxy)phenoxy]-2,2-difluoro-4-methyl-1,3-benzodioxole-5-carbonyl]amino]pyridine-2-carboxamide]",72 nM
6,"Cc1c2c(cc(Oc3ccc(OC(F)(F)F)cc3Cl)c1C(=O)Nc1ccc(C(N)=O)nc1)OC(F)(F)O2 [Compound 240, 5-[[6-[2-chloro-4-(trifluoromethoxy)phenoxy]-2,2-difluoro-4-methyl-1,3-benzodioxole-5-carbonyl]amino]pyridine-2-carboxamide]",570 nM
7,"Cc1cc(OC(F)(F)F)cc(Oc2ccc(OC(F)(F)F)cc2Cl)c1C(=O)Nc1ccnc(C(N)=O)c1 [Compound 241, 4-[[2-[2-chloro-4-(trifluoromethoxy)phenoxy]-6-methyl-4-(trifluoromethoxy)benzoyl]amino]pyridine-2-carboxamide]",190 nM
8,"COc1cc(OC(F)(F)F)ccc1Oc1cc(OC(F)(F)F)cc(C)c1C(=O)Nc1ccnc(C(N)=O)c1 [Compound 242, 4-[[2-[2-methoxy-4-(trifluoromethoxy)phenoxy]-6-methyl-4-(trifluoromethoxy)benzoyl]amino]pyridine-2-carboxamide]",13 nM
9,"Cc1cc(OC(F)(F)F)cc(Oc2ccc(OC(F)(F)F)cc2Cl)c1C(=O)Nc1ccc(C(N)=O)nc1 [Compound 243, 5-[[2-[2-chloro-4-(trifluoromethoxy)phenoxy]-6-methyl-4-(trifluoromethoxy)benzoyl]amino]pyridine-2-carboxamide]",1850 nM
10,"COc1cc(OC(F)(F)F)ccc1Oc1ccc(C(F)F)c(C)c1C(=O)Nc1ccnc(C(N)=O)c1 [Compound 244, 4-[[3-(difluoromethyl)-6-[2-methoxy-4-(trifluoromethoxy)phenoxy]-2-methyl-benzoyl]amino]pyridine-2-carboxamide]",17 nM
11,"COc1cc(OC(F)(F)F)ccc1Oc1cc(OC(F)(F)F)cc(C)c1C(=O)Nc1ccc(C(N)=O)nc1 [Compound 245, 5-[[2-[2-methoxy-4-(trifluoromethoxy)phenoxy]-6-methyl-4-(trifluoromethoxy)benzoyl]amino]pyridine-2-carboxamide]",333 nM
12,"COc1cc(OC(F)(F)F)ccc1Oc1cc(C(F)(F)F)c(C2CC2)nc1C(=O)Nc1ccnc(C(N)=O)c1 [Compound 246, N-(2-carbamoyl-4-pyridyl)-6-cyclopropyl-3-[2-methoxy-4-(trifluoromethoxy)phenoxy]-5-(trifluoromethyl)pyridine-2-carboxamide]",140 nM
13,"COc1cc(OC(F)(F)F)ccc1Oc1cc(C(F)(F)F)c(C)nc1C(=O)Nc1ccnc(C(N)=O)c1 [Compound 247, N-(2-carbamoyl-4-pyridyl)-3-[2-methoxy-4-(trifluoromethoxy)phenoxy]-6-methyl-5-(trifluoromethyl)pyridine-2-carboxamide]",190 nM
14,"COc1cc(OC(F)(F)F)ccc1Oc1cc(C2CC2)cc(C)c1C(=O)Nc1ccnc(C(N)=O)c1 [Compound 248, 4-[[4-cyclopropyl-2-[2-methoxy-4-(trifluoromethoxy)phenoxy]-6-methyl-benzoyl]amino]pyridine-2-carboxamide]",27 nM
15,"NC(=O)c1cc(NC(=O)c2c(Oc3ccc(OC(F)(F)F)cc3O)ccc(C(F)(F)F)c2F)cc[n+]1[O-] [Compound 249, 4-[[2-fluoro-6-[2-hydroxy-4-(trifluoromethoxy)phenoxy]-3-(trifluoromethyl)benzoyl]amino]-1-oxido-pyridin-1-ium-2-carboxamide]",2930 nM
16,"NC(=O)c1cc(NC(=O)c2c(-c3ccc(OC(F)(F)F)cc3)ccc(C(F)(F)F)c2F)ccn1 [Compound 250, 4-[[2-fluoro-6-[4-(trifluoromethoxy)phenyl]-3-(trifluoromethyl)benzoyl]amino]pyridine-2-carboxamide]",> 3000 nM
